Measured values taken from ChEMBL document CHEMBL3244320, “2-Acetylpyridine thiosemicarbazones. 1. A new class of potential antimalarial agents” (J Med Chem, 1979).
The source made the active and inactive calls. No cut-off for these calls is given here.

How the values were obtained:
[1] = system: Plasmodium berghei; experiment: Antimalarial activity against Plasmodium berghei KBG 173 infected in ICR/HA Swiss mouse assessed as increase in mean survival time at 40 mg/kg, sc administered 72 hrs post infection; format: functional; settings: route subcutaneous
[2] = system: Mus musculus; experiment: Toxicity in ICR/HA Swiss mouse infected with Plasmodium berghei KBG 173 assessed as mortality at 320 mg/kg, sc administered 72 hrs post infection measured for 6 days; format: organism-based; parameters: dose 320 mg/kg, route subcutaneous; settings: in vivo, 144 h
[3] = system: Plasmodium berghei; experiment: Antimalarial activity against Plasmodium berghei KBG 173 infected in ICR/HA Swiss mouse assessed as increase in mean survival time at 160 mg/kg, sc administered 72 hrs post infection; format: functional; settings: route subcutaneous
[4] = system: Plasmodium berghei; experiment: Antimalarial activity against Plasmodium berghei KBG 173 infected in ICR/HA Swiss mouse assessed as increase in mean survival time at 80 mg/kg, sc administered 72 hrs post infection; format: functional; settings: route subcutaneous
[5] = system: Mus musculus; experiment: Toxicity in ICR/HA Swiss mouse infected with Plasmodium berghei KBG 173 assessed as mortality at 640 mg/kg, sc administered 72 hrs post infection measured for 6 days; format: organism-based; parameters: dose 640 mg/kg, route subcutaneous; settings: in vivo, 144 h
[6] = system: Plasmodium berghei; experiment: Antimalarial activity against Plasmodium berghei KBG 173 infected in ICR/HA Swiss mouse assessed as curative effect at 320 mg/kg, sc administered 72 hrs post infection; format: functional, organism-based; parameters: dose 320 mg/kg
[7] = system: Plasmodium berghei; experiment: Antimalarial activity against Plasmodium berghei KBG 173 infected in ICR/HA Swiss mouse assessed as increase in mean survival time at 320 mg/kg, sc administered 72 hrs post infection; format: functional; settings: route subcutaneous
[8] = system: Plasmodium berghei; experiment: Antimalarial activity against Plasmodium berghei KBG 173 infected in ICR/HA Swiss mouse at 40 to 640 mg/kg, sc administered 72 hrs post infection; format: functional, organism-based
[9] = system: Mus musculus; experiment: Toxicity in ICR/HA Swiss mouse infected with Plasmodium berghei KBG 173 assessed as mortality at 160 mg/kg, sc administered 72 hrs post infection measured for 6 days; format: organism-based; parameters: dose 160 mg/kg, route subcutaneous; settings: in vivo, 144 h
[10] = system: Mus musculus; experiment: Toxicity in ICR/HA Swiss mouse infected with Plasmodium berghei KBG 173 assessed as mortality at 40 mg/kg, sc administered 72 hrs post infection measured for 6 days; format: organism-based; parameters: dose 40 mg/kg, route subcutaneous; settings: in vivo, 144 h
[11] = system: Plasmodium berghei; experiment: Antimalarial activity against Plasmodium berghei KBG 173 infected in ICR/HA Swiss mouse assessed as increase in mean survival time at 640 mg/kg, sc administered 72 hrs post infection; format: functional; settings: route subcutaneous
[12] = system: Plasmodium berghei; experiment: Antimalarial activity against Plasmodium berghei KBG 173 infected in ICR/HA Swiss mouse assessed as curative effect at 160 mg/kg, sc administered 72 hrs post infection; format: functional, organism-based; parameters: dose 160 mg/kg

SMILES | MST [1] [days] | MST [3] [days] | MST [4] [days] | MST [7] [days] | MST [11] [days] | also measured
CCN(CC)Cc1cc(NC(=S)N/N=C(\C)c2ccccn2)ccc1O.Cl.O | 2 | 8.8 | 5.6 |  |  | Activity [2]: Toxic
Br.CCN(CC)CCNC(=S)N/N=C(\C)c1ccccn1 | 0.3 | 0.5 |  |  |  | Activity [5]: Toxic; Activity [2]: Toxic
C/C(=N\NC(=S)Nc1ccc(C)cc1)c1ccccn1 | 0.3 | 4.5 | 2.1 |  |  | Activity [6]: Active
C/C(=N\NC(=S)Nc1cccc(C)c1)c1ccccn1 | 0.4 | 7.4 | 3 | 10.3 |  | Activity [6]: Active
C/C(=N\NC(=S)NC12CC3CC(CC(C3)C1)C2)c1cccnc1 |  |  |  |  |  | Activity [8]: inactive
C/C(=N\NC(N)=S)c1ccccn1 |  |  |  |  |  | Activity [5]: Toxic; Activity [9]: Toxic; Activity [10]: Toxic
C=CCNC(=S)N/N=C(\C)c1ccccn1 | 0.5 | 3.1 | 2.3 | 3 |  | Activity [5]: Toxic
C/C(=N\NC(=S)NC12CC3CC(CC(C3)C1)C2)c1ccncc1 |  |  |  |  |  | Activity [8]: inactive
C/C(=N\NC(=S)Nc1ccccc1)c1ccncc1 |  |  |  |  |  | Activity [8]: inactive
C/C(=N\NC(=S)Nc1ccccn1)c1cccnc1 |  |  |  |  |  | Activity [8]: inactive
COc1cccc(NC(=S)N/N=C(\C)c2ccccn2)c1 | 0.3 | 8.1 | 0.4 | 4.3 | 9.6 | 
C/C(=N\NC(=S)NCc1ccccc1C)c1ccccn1 | 0.1 | 5.9 | 2.5 | 7.7 | 8.9 | Activity [12]: Active
C/C(=N\NC(=S)Nc1ccccn1)c1ccccn1 | 1.5 | 4.5 | 2.7 | 6.5 | 8.1 | 
COc1cccc(CNC(=S)N/N=C(\C)c2ccccn2)c1 | 0.3 | 0.9 | 0.3 | 4.5 | 5.9 | 
C/C(=N\NC(=S)Nc1cccc(F)c1)c1ccccn1 | 4.4 | 6.6 | 5.8 |  |  | Activity [6]: Active
C/C(=N\NC(=S)Nc1ccccc1)c1cccnc1 |  |  |  |  |  | Activity [8]: inactive
C/C(=N\NC(=S)Nc1ccccc1F)c1ccccn1 | 0 | 6.8 | 2.6 |  |  | Activity [6]: Active
Br.C/C(=N\NC(=S)NCC(C)N(C)C)c1ccccn1 (centres undefined) | 0.1 |  |  |  |  | Activity [5]: Toxic
C/C(=N\NC(=S)NCCO)c1ccccn1 | 0.3 | 0.5 |  |  |  | Activity [5]: Toxic
C/C(=N\NC(=S)Nc1c(C)cccc1C)c1ccccn1 | 0.4 | 2 | 0.4 | 5.8 | 11.4 | 
Br.CCN(CC)CCCC(C)NC(=S)N/N=C(\C)c1ccccn1 (centres undefined) | 0.3 |  |  |  |  | Activity [5]: Toxic
C/C(=N\NC(=S)NCCc1ccccc1)c1ccccn1 | -0.2 | 2 | 0.6 | 6.6 | 8.8 | 
COc1ccccc1NC(=S)N/N=C(\C)c1ccccn1 | 0.1 | 2 | 0.4 | 4.6 | 6.6 | 
C/C(=N\NC(=S)NC12CC3CC(CC(C3)C1)C2)c1ccccn1 | 0.7 | 3.7 | 1.1 | 8.5 | 9.2 | 
C/C(=N\NC(=S)Nc1cccc(Cl)c1)c1ccccn1 | 0.3 | 2.5 | 0.3 | 5.1 | 7.1 | 
COc1ccccc1CNC(=S)N/N=C(\C)c1ccccn1 | 0.1 | 1.3 | 0.3 | 3.5 | 6.9 | 
C/C(=N\NC(=O)Nc1ccccc1)c1ccccn1 |  |  |  |  |  | Activity [8]: inactive
C/C(=N\NC(=S)Nc1ccc(C(C)C)cc1)c1ccccn1 | 0.5 | 2.1 | 1.9 | 5.9 | 5.5 | 
C/C(=N\NC(=S)NC1CCCCCCC1)c1ccccn1 | 1.1 | 3.4 | 1.2 | 4.8 | 10.7 | Activity [12]: Active
C/C(=N\NC(=S)Nc1ccccn1)c1ccncc1 |  |  |  |  |  | Activity [8]: inactive
